Calls of active or inactive are those of the source. No cut-off for these calls is given here.
How the values were obtained:
Bacillus subtilis [1] = experiment: Antibacterial activity against Bacillus subtilis 168 assessed as increase in average cell length at 7 uM incubated for 4 hrs in 69% of bacterial cells by fluorescent microscopy; assay type: functional
[2] = target: T1, Cell division protein FtsZ (Escherichia coli K-12) (UniProt P0A9A6); experiment: Inhibition of KCl-induced Escherichia coli BL21 FtsZ polymerization assessed as decrease in FtsZ polymer thickness at 80 uM incubate for 1 hrs by […] staining based fluorescence microscopy
T1 sequence (whole entry): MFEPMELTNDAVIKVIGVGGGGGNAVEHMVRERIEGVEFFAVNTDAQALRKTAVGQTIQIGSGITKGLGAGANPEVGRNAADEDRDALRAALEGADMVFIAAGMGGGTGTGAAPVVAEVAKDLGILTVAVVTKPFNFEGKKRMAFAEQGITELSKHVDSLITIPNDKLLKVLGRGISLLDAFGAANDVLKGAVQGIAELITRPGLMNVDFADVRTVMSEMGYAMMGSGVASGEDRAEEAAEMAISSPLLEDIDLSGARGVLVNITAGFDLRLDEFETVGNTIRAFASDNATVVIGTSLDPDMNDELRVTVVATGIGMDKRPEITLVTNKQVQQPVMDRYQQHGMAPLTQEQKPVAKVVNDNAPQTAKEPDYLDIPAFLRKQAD

[3] = target: T2, Cell division protein FtsZ (Bacillus subtilis) (UniProt A5Z1V5); experiment: Binding affinity to Bacillus subtilis FtsZ assessed as intrinsic tryptophan quenching incubated for 30 mins by fluorescence analysis
T2 sequence (whole entry): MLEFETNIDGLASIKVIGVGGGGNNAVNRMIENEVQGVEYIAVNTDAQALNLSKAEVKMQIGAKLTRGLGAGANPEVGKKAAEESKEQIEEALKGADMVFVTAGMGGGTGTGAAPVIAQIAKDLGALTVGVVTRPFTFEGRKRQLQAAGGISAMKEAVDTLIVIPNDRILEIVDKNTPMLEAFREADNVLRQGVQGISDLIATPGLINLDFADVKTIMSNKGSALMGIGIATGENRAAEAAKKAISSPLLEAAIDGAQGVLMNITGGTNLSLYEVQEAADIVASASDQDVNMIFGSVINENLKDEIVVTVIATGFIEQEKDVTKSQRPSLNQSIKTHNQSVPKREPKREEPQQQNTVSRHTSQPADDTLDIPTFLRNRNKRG

HeLa [4] = experiment: Antiproliferative activity against human HeLa cells assessed as inhibition of cell proliferation incubated for 24 hrs by sulfo-rhodamine B assay; assay type: functional, cell-based
[5] = target: T1, Cell division protein FtsZ (Escherichia coli K-12); experiment: Binding affinity to Escherichia coli BL21 FtsZ assessed as hydrophobic probe ANS-FtsZ complex fluorescence quenching at 10 uM for 30 mins by fluorescence analysis
[6] = target: T3, Cell division protein FtsZ (Bacillus subtilis, UniProt A5Z1V5); experiment: Binding affinity to Bacillus subtilis FtsZ assessed as dissociation constant of intrinsic tryptophan quenching incubated for 30 mins by double reciprocal plot analysis
T3 sequence (A5Z1V5 whole entry): T2 sequence (whole entry)

[7] = target: T1, Cell division protein FtsZ (Escherichia coli K-12); experiment: Binding affinity to Escherichia coli BL21 FtsZ assessed as hydrophobic probe ANS-FtsZ complex fluorescence quenching at 40 uM for 30 mins by fluorescence analysis
[8] = target: T4, Cell division protein FtsZ (Escherichia coli K-12, UniProt P0A9A6); experiment: Binding affinity to Escherichia coli BL21 FtsZ assessed as dissociation constant of hydrophobic probe ANS-FtsZ complex fluorescence quenching incubated for 30 mins by double reciprocal plot analysis
T4 sequence (P0A9A6 whole entry): T1 sequence (whole entry)

HeLa [9] = experiment: Antiproliferative activity against human HeLa cells assessed as inhibition of cell proliferation at 10 uM incubated for 24 hrs by sulforhodamine B assay; assay type: functional; set-up: scale not given: the % may be the effect or the level left
HeLa [10] = experiment: Antiproliferative activity against human HeLa cells assessed as inhibition of cell proliferation at 200 uM incubated for 24 hrs by sulforhodamine B assay; assay type: functional; set-up: scale not given: the % may be the effect or the level left
Bacillus subtilis [11] = experiment: Antibacterial activity against Bacillus subtilis 168 assessed as increase in average cell length at 7 uM incubated for 4 hrs in 45% of bacterial cells by fluorescent microscopy; assay type: functional
Bacillus subtilis [12] = experiment: Antibacterial activity against Bacillus subtilis 168 assessed as increase in average cell length at 7 uM incubated for 4 hrs in 82% of bacterial cells by fluorescent microscopy; assay type: functional
Escherichia coli [13] = experiment: Antibacterial activity against Escherichia coli XL1 assessed as bacterial growth inhibition at 300 uM by spectrophotometric method; assay type: functional; conditions: read-out: GI
[14] = target: T1, Cell division protein FtsZ (Escherichia coli K-12); experiment: Inhibition of KCl-induced Escherichia coli BL21 FtsZ polymerization assessed as decrease in FtsZ polymer size at 80 uM incubate for 1 hrs by […] staining based fluorescence microscopy
HeLa [15] = experiment: Antiproliferative activity against human HeLa cells assessed as inhibition of cell proliferation at 50 uM incubated for 24 hrs by sulforhodamine B assay; assay type: functional; set-up: scale not given: the % may be the effect or the level left
[16] = target: T1, Cell division protein FtsZ (Escherichia coli K-12); experiment: Inhibition of Escherichia coli BL21 FtsZ assessed as inhibition of KCl-induced GTPase activity at 80 uM preincubated for 10 mins followed by KCl stimulation and measured after 10 mins by malachite green ammonium molybdate dye based spectroscopic analysis
Bacillus subtilis [17] = experiment: Antibacterial activity against Bacillus subtilis 168 assessed as bacterial growth inhibition at 10 uM by spectrophotometric method; assay type: functional; conditions: read-out: GI
Tubulin (Homo sapiens) = Tubulin (Homo sapiens) (UniProt P68371+Q9H4B7+P0DPH7+P68366+Q13509+Q71U36+P04350+Q3ZCM7+P07437+P68363+Q9BQE3+Q6PEY2+Q13885+Q9BVA1+Q9BUF5); experiment: Inhibition of tubulin polymerization in human HeLa cells assessed as effect on interphase microtubule network at 80 to 150 uM for 24 hrs by […] staining based fluorescence microscopy; assay type: cell-based; conditions: dose 80-150 µM
Bacillus subtilis [18] = experiment: Antibacterial activity against Bacillus subtilis 168 assessed as bacterial growth inhibition by spectrophotometric method; assay type: functional, organism-based
Bacillus subtilis [19] = experiment: Antibacterial activity against Bacillus subtilis 168 assessed as fold increase in average cell length at 7 uM incubated for 4 hrs by fluorescent microscopy; assay type: functional
[20] = target: T1, Cell division protein FtsZ (Escherichia coli K-12); experiment: Binding affinity to Escherichia coli BL21 FtsZ assessed as hydrophobic probe ANS-FtsZ complex fluorescence quenching at 2 uM for 30 mins by fluorescence analysis
[21] = target: T1, Cell division protein FtsZ (Escherichia coli K-12); experiment: Inhibition of KCl-induced Escherichia coli BL21 FtsZ polymerization at 40 uM incubate for 10 min followed by KCl stimulation by spectrofluorimeter based light-scattering assay
Escherichia coli [22] = experiment: Antibacterial activity against Escherichia coli XL1 assessed as bacterial growth inhibition at 200 uM by spectrophotometric method; assay type: functional; conditions: read-out: GI
Bacillus subtilis [23] = experiment: Antibacterial activity against Bacillus subtilis 168 assessed as bacterial growth inhibition at 5 uM by spectrophotometric method; assay type: functional; conditions: read-out: GI
[24] = target: T2, Cell division protein FtsZ (Bacillus subtilis); experiment: Inhibition of Bacillus subtilis 168 FtsZ assessed as decrease FtsZ ring at mid bacterial cells at 7 uM for 4 hrs by immunostaining based fluorescent microscopy

For `O=C1c2ccccc2C(=O)c2c(O)c(O)cc(O)c21` [PURPURIN], the Activity (Bacillus subtilis [1]) was 15.1 um, the inhibition [2] was “Active” and the Activity [3] was “Dose-Dependent Effect”. For the same compound, the IC50 (HeLa [4]) was 110 µM, the Activity [5] was 35% and the Kd [6] was 5.2 µM. The Activity [7] was 66%, the Kd [8] was 11 µM and the Activity (HeLa [9]) was 6%. For the same compound, the Activity (HeLa [10]) was 72%, the Activity (Bacillus subtilis [11]) was 10.1 um and the Activity (Bacillus subtilis [12]) was 20.1 um. The inhibition of growth at 300 µM (Escherichia coli [13]) was 94.7%, the inhibition [14] was “Active” and the Activity (HeLa [15]) was 28%. The inhibition [16] was 21.9%, the inhibition of growth at 10 µM (Bacillus subtilis [17]) was 65% and the inhibition (Tubulin (Homo sapiens)) was “inactive”. The IC50 (Bacillus subtilis [18]) was 5.5 µM, the “fold change (FC)” value (Bacillus subtilis [19]) was 10 and the Activity [20] was 14%. The inhibition [21] was 31%, the inhibition of growth at 200 µM (Escherichia coli [22]) was 67.8% and the inhibition of growth at 5 µM (Bacillus subtilis [23]) was 47%. The Activity [24] was “Active”.

From ChEMBL document CHEMBL5230157, “The natural anthraquinone dye purpurin exerts antibacterial activity by perturbing the FtsZ assembly” (Bioorg Med Chem, 2021)
